Laboratory results taken from PubChem BioAssay (NCI).
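96-well plates; 48 h exposure; 5 concentrations. Endpoints by linear interpolation between flanking doses. Not reached: highest tested concentration assigned. TGI: total growth inhibition.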

Columns and labels:
Experiment in all cases: growth of human tumour cells (NCI), 48 h
786-0 renal = tested on: 786-0 renal
A549 NSCLC = tested on: A549 NSCLC
ACHN renal = tested on: ACHN renal
BT-549 breast = tested on: BT-549 breast
CAKI-1 renal = tested on: CAKI-1 renal
CCRF-CEM leukemia = tested on: CCRF-CEM leukemia
COLO 205 colon = tested on: COLO 205 colon
DU-145 prostate = tested on: DU-145 prostate
EKVX NSCLC = tested on: EKVX NSCLC
HCC-2998 colon = tested on: HCC-2998 colon
HCT-116 colon = tested on: HCT-116 colon
HCT-15 colon = tested on: HCT-15 colon
HL-60(TB) leukemia = tested on: HL-60(TB) leukemia
HOP-62 NSCLC = tested on: HOP-62 NSCLC
HS 578T breast = tested on: HS 578T breast
HT29 colon = tested on: HT29 colon
IGROV1 ovarian = tested on: IGROV1 ovarian
K-562 leukemia = tested on: K-562 leukemia
KM12 colon = tested on: KM12 colon
LOX IMVI melanoma = tested on: LOX IMVI melanoma
M14 melanoma = tested on: M14 melanoma
MALME-3M melanoma = tested on: MALME-3M melanoma
MCF7 breast = tested on: MCF7 breast
MDA-MB-231 breast = tested on: MDA-MB-231 breast
MDA-N = tested on: MDA-N
MOLT-4 leukemia = tested on: MOLT-4 leukemia
NCI-H226 lung = tested on: NCI-H226 lung
NCI-H23 lung = tested on: NCI-H23 lung
NCI-H460 lung = tested on: NCI-H460 lung
NCI-H522 lung = tested on: NCI-H522 lung
NCI/ADR-RES ovarian = tested on: NCI/ADR-RES ovarian
OVCAR-4 ovarian = tested on: OVCAR-4 ovarian
OVCAR-5 ovarian = tested on: OVCAR-5 ovarian
OVCAR-8 ovarian = tested on: OVCAR-8 ovarian
PC-3 prostate = tested on: PC-3 prostate
RPMI-8226 leukemia = tested on: RPMI-8226 leukemia
RXF 393 renal = tested on: RXF 393 renal
SF-268 CNS = tested on: SF-268 CNS
SF-295 CNS = tested on: SF-295 CNS
SF-539 CNS = tested on: SF-539 CNS
SK-MEL-2 melanoma = tested on: SK-MEL-2 melanoma
SK-MEL-28 melanoma = tested on: SK-MEL-28 melanoma
SK-OV-3 ovarian = tested on: SK-OV-3 ovarian
SN12C renal = tested on: SN12C renal
SNB-19 CNS = tested on: SNB-19 CNS
SNB-75 CNS = tested on: SNB-75 CNS
SR leukemia = tested on: SR leukemia
SW-620 colon = tested on: SW-620 colon
T-47D breast = tested on: T-47D breast
TK-10 renal = tested on: TK-10 renal
U251 CNS = tested on: U251 CNS
UACC-257 melanoma = tested on: UACC-257 melanoma
UACC-62 melanoma = tested on: UACC-62 melanoma
UO-31 renal = tested on: UO-31 renal
A498 renal = tested on: A498 renal
HOP-92 NSCLC = tested on: HOP-92 NSCLC
MDA-MB-435 = tested on: MDA-MB-435
OVCAR-3 ovarian = tested on: OVCAR-3 ovarian
SK-MEL-5 melanoma = tested on: SK-MEL-5 melanoma

O=C1c2ccccc2CC12CCC1(CC2)OCCO1
TGI (786-0 renal): > 100 µM | TGI (A549 NSCLC): > 100 µM | TGI (ACHN renal): > 100 µM | TGI (BT-549 breast): > 100 µM | TGI (CAKI-1 renal): > 100 µM | TGI (CCRF-CEM leukemia): > 100 µM | TGI (COLO 205 colon): > 100 µM | TGI (DU-145 prostate): > 100 µM | TGI (EKVX NSCLC): > 100 µM | TGI (HCC-2998 colon): > 100 µM | TGI (HCT-116 colon): > 100 µM | TGI (HCT-15 colon): > 100 µM | TGI (HL-60(TB) leukemia): > 100 µM | TGI (HOP-62 NSCLC): > 100 µM | TGI (HS 578T breast): > 100 µM | TGI (HT29 colon): > 100 µM | TGI (IGROV1 ovarian): > 100 µM | TGI (K-562 leukemia): > 100 µM | TGI (KM12 colon): > 100 µM | TGI (LOX IMVI melanoma): > 100 µM | TGI (M14 melanoma): > 100 µM | TGI (MALME-3M melanoma): > 100 µM | TGI (MCF7 breast): > 100 µM | TGI (MDA-MB-231 breast): > 100 µM | TGI (MDA-N): > 100 µM | TGI (MOLT-4 leukemia): > 100 µM | TGI (NCI-H226 lung): > 100 µM | TGI (NCI-H23 lung): > 100 µM | TGI (NCI-H460 lung): > 100 µM | TGI (NCI-H522 lung): > 100 µM | TGI (NCI/ADR-RES ovarian): > 100 µM | TGI (OVCAR-4 ovarian): > 100 µM | TGI (OVCAR-5 ovarian): > 100 µM | TGI (OVCAR-8 ovarian): > 100 µM | TGI (PC-3 prostate): > 100 µM | TGI (RPMI-8226 leukemia): > 100 µM | TGI (RXF 393 renal): > 100 µM | TGI (SF-268 CNS): > 100 µM | TGI (SF-295 CNS): > 100 µM | TGI (SF-539 CNS): > 100 µM | TGI (SK-MEL-2 melanoma): > 100 µM | TGI (SK-MEL-28 melanoma): > 100 µM | TGI (SK-OV-3 ovarian): > 100 µM | TGI (SN12C renal): > 100 µM | TGI (SNB-19 CNS): > 100 µM | TGI (SNB-75 CNS): > 100 µM | TGI (SR leukemia): > 100 µM | TGI (SW-620 colon): > 100 µM | TGI (T-47D breast): > 100 µM | TGI (TK-10 renal): > 100 µM | TGI (U251 CNS): > 100 µM | TGI (UACC-257 melanoma): > 100 µM | TGI (UACC-62 melanoma): > 100 µM | TGI (UO-31 renal): > 100 µM

COc1cc(Br)c(CC2C3=C(CCN2C(=O)C2CCC2)CC2(CC3)OCCO2)cc1O (stereo not drawn)
TGI (786-0 renal): > 100 µM | TGI (A498 renal): > 100 µM | TGI (A549 NSCLC): > 100 µM | TGI (ACHN renal): > 100 µM | TGI (CAKI-1 renal): > 100 µM | TGI (CCRF-CEM leukemia): > 100 µM | TGI (COLO 205 colon): 34.8 µM | TGI (DU-145 prostate): > 100 µM | TGI (EKVX NSCLC): > 100 µM | TGI (HCC-2998 colon): > 100 µM | TGI (HCT-116 colon): > 100 µM | TGI (HCT-15 colon): > 100 µM | TGI (HL-60(TB) leukemia): > 100 µM | TGI (HOP-62 NSCLC): > 100 µM | TGI (HOP-92 NSCLC): > 100 µM | TGI (HS 578T breast): > 100 µM | TGI (HT29 colon): 60.3 µM | TGI (IGROV1 ovarian): > 100 µM | TGI (K-562 leukemia): > 100 µM | TGI (KM12 colon): > 100 µM | TGI (LOX IMVI melanoma): > 100 µM | TGI (M14 melanoma): > 100 µM | TGI (MALME-3M melanoma): > 100 µM | TGI (MCF7 breast): > 100 µM | TGI (MDA-MB-231 breast): > 100 µM | TGI (MDA-MB-435): 64 µM | TGI (MDA-N): > 100 µM | TGI (MOLT-4 leukemia): > 100 µM | TGI (NCI-H226 lung): > 100 µM | TGI (NCI-H23 lung): 79.7 µM | TGI (NCI-H460 lung): > 100 µM | TGI (NCI-H522 lung): 98.4 µM | TGI (NCI/ADR-RES ovarian): > 100 µM | TGI (OVCAR-3 ovarian): > 100 µM | TGI (OVCAR-4 ovarian): > 100 µM | TGI (OVCAR-5 ovarian): > 100 µM | TGI (OVCAR-8 ovarian): > 100 µM | TGI (PC-3 prostate): > 100 µM | TGI (RPMI-8226 leukemia): > 100 µM | TGI (RXF 393 renal): 44.4 µM | TGI (SF-268 CNS): > 100 µM | TGI (SF-295 CNS): > 100 µM | TGI (SF-539 CNS): > 100 µM | TGI (SK-MEL-2 melanoma): > 100 µM | TGI (SK-MEL-28 melanoma): > 100 µM | TGI (SK-MEL-5 melanoma): > 100 µM | TGI (SK-OV-3 ovarian): > 100 µM | TGI (SN12C renal): > 100 µM | TGI (SNB-19 CNS): > 100 µM | TGI (SNB-75 CNS): 76.8 µM | TGI (SR leukemia): > 100 µM | TGI (SW-620 colon): > 100 µM | TGI (T-47D breast): > 100 µM | TGI (TK-10 renal): > 100 µM | TGI (U251 CNS): > 100 µM | TGI (UACC-257 melanoma): > 100 µM | TGI (UACC-62 melanoma): > 100 µM

CCCCNC(=O)OCCN=C1c2ccccc2C(Br)C(Br)c2ccccc21 (stereo not drawn)
TGI (786-0 renal): 28.3 µM | TGI (A498 renal): > 100 µM | TGI (A549 NSCLC): > 100 µM | TGI (ACHN renal): 62.4 µM | TGI (CAKI-1 renal): 49.2 µM | TGI (CCRF-CEM leukemia): > 100 µM | TGI (COLO 205 colon): 44.7 µM | TGI (DU-145 prostate): > 100 µM | TGI (EKVX NSCLC): > 100 µM | TGI (HCC-2998 colon): > 100 µM | TGI (HCT-116 colon): 60.5 µM | TGI (HCT-15 colon): 38.2 µM | TGI (HL-60(TB) leukemia): 37.6 µM | TGI (HOP-62 NSCLC): > 100 µM | TGI (HOP-92 NSCLC): 37.1 µM | TGI (HS 578T breast): > 100 µM | TGI (HT29 colon): 58.3 µM | TGI (IGROV1 ovarian): > 100 µM | TGI (K-562 leukemia): > 100 µM | TGI (KM12 colon): > 100 µM | TGI (LOX IMVI melanoma): 47.2 µM | TGI (M14 melanoma): 40.2 µM | TGI (MALME-3M melanoma): 52.9 µM | TGI (MCF7 breast): > 100 µM | TGI (MDA-MB-231 breast): > 100 µM | TGI (MDA-MB-435): 57 µM | TGI (MDA-N): 31.7 µM | TGI (MOLT-4 leukemia): 84.1 µM | TGI (NCI-H226 lung): > 100 µM | TGI (NCI-H23 lung): > 100 µM | TGI (NCI-H460 lung): > 100 µM | TGI (NCI-H522 lung): 73 µM | TGI (NCI/ADR-RES ovarian): 47.2 µM | TGI (OVCAR-3 ovarian): 46.1 µM | TGI (OVCAR-4 ovarian): 59.6 µM | TGI (OVCAR-5 ovarian): > 100 µM | TGI (OVCAR-8 ovarian): 58.9 µM | TGI (PC-3 prostate): > 100 µM | TGI (RPMI-8226 leukemia): 62.1 µM | TGI (RXF 393 renal): 34.8 µM | TGI (SF-268 CNS): > 100 µM | TGI (SF-295 CNS): > 100 µM | TGI (SF-539 CNS): > 100 µM | TGI (SK-MEL-2 melanoma): > 100 µM | TGI (SK-MEL-28 melanoma): > 100 µM | TGI (SK-MEL-5 melanoma): 50.3 µM | TGI (SK-OV-3 ovarian): > 100 µM | TGI (SN12C renal): > 100 µM | TGI (SNB-19 CNS): 55.3 µM | TGI (SNB-75 CNS): > 100 µM | TGI (SR leukemia): > 100 µM | TGI (SW-620 colon): > 100 µM | TGI (T-47D breast): > 100 µM | TGI (TK-10 renal): 52.2 µM | TGI (U251 CNS): 62.5 µM | TGI (UACC-257 melanoma): 76.2 µM | TGI (UACC-62 melanoma): > 100 µM
